Where “and” joins values, the source holds several entries; their conditions need not be identical. Equal entries are not always repeated. Entries after “also recorded” stand apart in the source; their conditions may differ. Bridge positions count the residues as written; N and C are the ends. Ends that are not written are not given here.
What was measured:
OX-KO mice [1] = assay: Cataplexy-like episodes after subcutaneous injection in OX-KO mice; type: in vivo, mouse; settings: SC single injection at ZT0, 160 μM in 1 mL saline; for total duration of cataplexy-like episodes during the dark period: vs vehicle
Description: D-CLS: total duration of cataplectic-like episodes during the dark period. V: vehicle (saline). OX-D: OX-DRAGON. TAT: TAT peptide. […] […] The dots indicate values in individual mice.
Such episodes, identified as direct transitions from wakefulness to REM sleep (Scammell et al., 2009), during the dark period are 100% specific for cataplexy in mouse models of NT1 (Fujiki et al., 2009). Correspondence between such events on polysomnographic tracings and abrupt behavioural transitions to a state of immobility was confirmed based on synchronized video tracings in a subset of mice (n=4) during treatment with vehicle and with OX-DRAGON.

OX-KO mice [2] = assay: Wakefulness and sleep (EEG/EMG) after intracerebroventricular infusion in OX-KO mice; type: in vivo, mouse; settings: ICV 160 μM at 5 μL/h, ZT0-6, vs vehicle (artificial cerebrospinal fluid)
Protocol: Wakefulness, non-REM sleep (NREM) and REM sleep are expressed as a percentage of the recording time. V: vehicle (artificial cerebrospinal fluid). OX-D: OX-DRAGON. TAT: TAT peptide. ZT: Zeitgeber time (i.e., time since lights were switched on). Black bars: intracerebroventricular infusion (5 μL/h from ZT0 to ZT6, with vehicle or peptides at 160 μM). * and †: P<0.05, Wilcoxon test with exact significance (Monte Carlo method) vs. vehicle (with correction for false-discovery rate) or vs. OX-DRAGON, respectively.
(§1) A biocompatible acrylic resin protection for was applied to the animal's head to protect the electrode and cannula connectors. After 1-2 weeks of post-operative recovery, the animals were connected via rotating electrical and fluid connectors respectively to thin electrical cables and to a catheter, itself connected to a precision pump for ICV infusion. The rotating connectors, cables and catheter were supported by a balanced arm to allow the animals full freedom of movement during the recordings, which were made with light: dark cycle of 12:12 hours. Wakefulness, non-REM sleep, and REM sleep were assessed based on EEG and EMG tracings with a technique previously published in detail (Bastianini et al., 2011).

OX-KO mice [3] = assay: Wakefulness and sleep (EEG/EMG) after subcutaneous injection in OX-KO mice; type: in vivo, mouse; settings: SC single injection at ZT0, 160 μM in 1 mL saline, vs vehicle; for time spent in REM sleep: light and dark period
Protocol: Wakefulness, non-REM sleep (NREM) and REM sleep are expressed as a percentage of the recording time. V: vehicle (saline). OX-D: OX-DRAGON. TAT: TAT peptide. ZT: Zeitgeber Time (i.e., time since lights were switched on). Each peptide was injected subcutaneously at the concentration of […] in 1 mL of vehicle at ZT0. *: P<0.05, Wilcoxon test with exact significance (Monte Carlo method) vs. vehicle with correction for false-discovery rate.
as §1
Experiments were performed as in step 3 above, except for the absence of the ICV cannula implant.

OR1 [4] = biological target: T1, OR1 (Homo sapiens, UniProt O43613); set-up: host or cells: HEK-293T; settings: Lang et al., 2004; cited from earlier work
T1 sequence (O43613 1-425): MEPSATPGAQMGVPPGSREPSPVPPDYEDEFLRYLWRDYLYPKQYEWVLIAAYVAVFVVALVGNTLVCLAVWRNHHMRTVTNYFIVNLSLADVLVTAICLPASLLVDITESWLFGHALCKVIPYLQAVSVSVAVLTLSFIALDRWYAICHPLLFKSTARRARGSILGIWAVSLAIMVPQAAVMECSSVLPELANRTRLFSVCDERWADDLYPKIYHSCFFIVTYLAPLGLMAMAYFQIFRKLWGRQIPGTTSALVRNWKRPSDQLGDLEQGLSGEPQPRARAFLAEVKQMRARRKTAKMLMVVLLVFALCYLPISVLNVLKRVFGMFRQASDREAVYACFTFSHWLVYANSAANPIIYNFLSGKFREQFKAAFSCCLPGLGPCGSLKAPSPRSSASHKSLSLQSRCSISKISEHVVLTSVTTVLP

OR2 [5] = biological target: T2, OR2 (Homo sapiens, UniProt O43614); set-up: host or cells: HEK-293T; settings: Lang et al., 2004; cited from earlier work
T2 sequence (O43614 1-444): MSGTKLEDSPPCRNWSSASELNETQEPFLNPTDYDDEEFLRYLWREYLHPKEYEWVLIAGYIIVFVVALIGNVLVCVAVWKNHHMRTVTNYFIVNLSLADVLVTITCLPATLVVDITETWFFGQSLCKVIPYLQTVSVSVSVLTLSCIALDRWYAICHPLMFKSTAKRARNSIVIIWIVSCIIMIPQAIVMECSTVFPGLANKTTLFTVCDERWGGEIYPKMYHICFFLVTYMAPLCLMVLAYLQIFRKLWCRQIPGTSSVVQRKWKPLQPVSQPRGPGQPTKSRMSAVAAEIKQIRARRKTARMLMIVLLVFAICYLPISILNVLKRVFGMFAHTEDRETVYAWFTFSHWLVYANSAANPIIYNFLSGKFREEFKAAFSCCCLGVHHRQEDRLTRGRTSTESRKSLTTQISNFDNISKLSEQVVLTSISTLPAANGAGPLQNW

OR2 [6] = biological target: T2, OR2; assay: cell-based
[7] = test system: control Neuro-2a cells that do not express such receptors (wild-type, WT); assay: Intracellular Ca2+ response in control wild-type Neuro-2a cells without OR1/OR2; type: cell-based, mouse; settings: Neuro-2a cells without OR1 and OR2
Protocol: (§2) Selective expression of the OR1- or OR2-coding genes in the corresponding cell lines and the absence of expression of OR1 and OR2 in WT cells were confirmed by real-time PCR from RNA extracted from the individual DNAse-treated and back-transcribed cells (FIG. 3A). Responses in terms of intracellular [Ca^2+] were assessed in triplicate using Fluo-4 Direct Calcium Assay (Invitrogen) and a Tekan Spark microplate reader, normalizing the results obtained to the maximal responses.

[8] = Solubility of the peptide; type: physicochemical
Protocol: Two batches of OX-DRAGON were synthesized by an external commercial entity (Genscript, (www.genscript.com), with purity ≥98.0% and net peptide content ≥68.0% (FIG. 2). The peptide is highly soluble […] in water, DPBS and DMSO.

OR1 [9] = biological target: T1, OR1; assay: Intracellular Ca2+ response (Fluo-4 Direct Calcium Assay) in Neuro-2a cells expressing human OR1; type: cell-based; set-up: expressed in transfected cells; settings: OX-DRAGON 8.5 μM vs OXA 14.8 μM; triplicate; normalized to maximal responses
Description: (§3) Panel A: L, ladder DNA. Panel B: Data are reported as mean values and standard errors of the mean on triplicate measurements. The dots indicate the individual measures. […] The arrows indicate the time of the microinjection.
as §2

OR2 [10] = biological target: T2, OR2; assay: Intracellular Ca2+ response (Fluo-4 Direct Calcium Assay) in Neuro-2a cells expressing human OR2; type: cell-based; set-up: expressed in transfected cells; settings: OX-DRAGON 8.5 μM vs OXA 14.8 μM; triplicate; normalized to maximal responses
Description: as §3, §2

OR1 [11] = biological target: T1, OR1; assay: Concentration-response reporter assay kit (Cayman n. 600240/600250) on HEK-293T cells, OR1; type: cell-based; set-up: host or cells: HEK-293T
WT Neuro-2a cells = assay: Immunofluorescence (anti-OXA 16-33 amide) internalization in WT Neuro-2a cells; type: cell-based, mouse; settings: 74 μM, 1 hour, confocal microscopy
Description: The panels show immunofluorescence imaging (rabbit anti-OXA 16-33 amide primary antibody, 1:200, Phoenix peptides #H-003-36) in Neuro-2a cells without expression of OR1 and OR2. […] The presence of diffuse TRITC fluorescence at the cytoplasmic level was confirmed in confocal microscopy (panel A). […] Calibration bars: 50 μm.
Because crossing the BBB requires the ability to cross endothelial cell membranes, these experiments support the ability of OX-DRAGON to cross the BBB and reach brain tissue after systemic administration.

Row | Substance | total duration of cataplexy-like episodes during the dark period (OX-KO mice [1]) | REM sleep time (OX-KO mice [2]) | non-REM sleep time (OX-KO mice [2]) | wakefulness time (OX-KO mice [2]) | time spent awake (OX-KO mice [3]) | time spent in non-REM sleep (OX-KO mice [3]) | time spent in REM sleep (OX-KO mice [3]) | also measured
1 | YGRKKRRQRRR [TAT, cell penetrating TAT peptide of type-1 human immunodeficiency virus (HIV), reference compound] | not replicated | significant reduction in REM sleep time during the dark period | did not evoke significant effects | did not evoke significant effects | did not result in significant effects | did not result in significant effects | did not result in significant effects | 
2 | PDCCRQKTCSCRLYELLHGAGNHAAGILTL [4-33 truncated sequence of OXA] |  |  |  |  |  |  |  | EC50 on OR1 relative to the native OXA protein (OR1 [4]): approximately 1/7; EC50 on OR2 relative to the native OXA protein (OR2 [5]): approximately 1/7
3 | YGRKKRRQRRRPDCCRQKTCSCRLYELLHGAGNHAAGILTL-NH2 (disulfide 14-20, 15-22) [OX-DRAGON] | significantly decrease | marked reduction in REM sleep time | decreased non-REM sleep time | increased wakefulness time | without exerting significant effects | without exerting significant effects | significantly decrease | EC50 (OR2 [6]): 10.5 nM; intracellular [Ca2+] response of WT cells [7]: absence of significant effects; solubility ([8]; in DMSO): 10000 µg/mL; solubility ([8]; in DPBS): 10000 µg/mL; solubility ([8]; in water): 10000 µg/mL; intracellular [Ca2+] response of OR1-expressing cells (OR1 [9]): close to the maximal ones evoked by OXA; duration of individual cataplexy-like episodes (OX-KO mice [1]): no significant changes; number of cataplexy-like episodes (OX-KO mice [1]; P=0.034 one-tailed Wilcoxon): reduction in the number of cataplexy-like episodes; intracellular [Ca2+] response of OR2-expressing cells (OR2 [10]): close to the maximal ones evoked by OXA; EC50 (OR1 [11]; HEK-293T cells, reporter assay, Hill equation fit): 67.7 nM; OR1/OR2 EC50 ratio (OR1 [11]; receptor selectivity, EC50 OR1 / EC50 OR2): 6.47 and 6.5; internalization into cells (intracellular/cytoplasmic fluorescence signal) (WT Neuro-2a cells): cytoplasmic signal of diffused fluorescence; also recorded: presence of TRITC fluorescence signal at the intracellular level

Reference: US20250376497A1, “ARTIFICIAL PROTEIN AND USES THEREOF” (priority 2022, published 2025)
